Key:
JNK2 = JNK2 (Homo sapiens, UniProt P45984); test: JNK2 in vitro assay (SPA, GST-c-Jun phosphorylation); format: biochemical; details: amount necessary to achieve 50% inhibition, GST-c-Jun substrate
Procedure: (§1) JNK 2 and 3 in vitro assays: JNK3 and/or 2 assays are performed in 96 well MTT plates, by incubation of 0.5 μg of recombinant pre-activated GST-JNK or GST-JNK2 with 1 μg of recombinant, biotinylated GST-c-Jun and 2 μM ^33γ-ATP (2 nCi/μl), in the to presence or absence of sulfonamide inhibitors if formula I and in a reaction volume of 50 μl containing 50 mM Tris-HCl, pH 8.0; 10 mM MgCl2; 1 mM Dithiothreitol, and 100 μM NaVO4. The incubation is performed for 120 min. at R.T and stopped upon addition of 200 μl of a solution containing 250 μg of Streptavidine-coated SPA beads (Amersham, Inc.)^•, 5 mM EDTA, 0.1% Triton X-100 and 50 μM ATP, in phosphate saline buffer. After incubation for 60 minutes at RT, beads are sedimented by centrifugation at 1500×g for 5 minutes, resuspended in 200 μl of PBS containing 5 mM EDTA, 0.1% Triton X-100 and 50 μM ATP and the radioactivity measured in a scintillation β counter, following sedimentation of the beads as described above. By substituting GST-c Jun for biotinylated GST-1ATF2 or myelin basic protein, this assay can be used to measure inhibition of preactivated p38 and ERK MAP Kinases, respectively.
(§2) The values indicated in respect of JNK2 and 3, p38 and ERK2 refer to the IC50 (μM), i.e. the amount necessary to achieve 50% inhibition of said target (e.g. JNK2). From the above table it could be derived that said test compounds according to formula I do have a significant effect both on JNK2 and 3, but virtually no effect onto p38 and ERK2, thus delivering a quite selective inhibitory effect.

JNK3 = JNK3 (Homo sapiens, UniProt P53779); test: JNK3 in vitro assay (SPA, GST-c-Jun phosphorylation); format: biochemical; details: amount necessary to achieve 50% inhibition, GST-c-Jun substrate
Sequence of JNK3 (P53779 whole entry, species assumed): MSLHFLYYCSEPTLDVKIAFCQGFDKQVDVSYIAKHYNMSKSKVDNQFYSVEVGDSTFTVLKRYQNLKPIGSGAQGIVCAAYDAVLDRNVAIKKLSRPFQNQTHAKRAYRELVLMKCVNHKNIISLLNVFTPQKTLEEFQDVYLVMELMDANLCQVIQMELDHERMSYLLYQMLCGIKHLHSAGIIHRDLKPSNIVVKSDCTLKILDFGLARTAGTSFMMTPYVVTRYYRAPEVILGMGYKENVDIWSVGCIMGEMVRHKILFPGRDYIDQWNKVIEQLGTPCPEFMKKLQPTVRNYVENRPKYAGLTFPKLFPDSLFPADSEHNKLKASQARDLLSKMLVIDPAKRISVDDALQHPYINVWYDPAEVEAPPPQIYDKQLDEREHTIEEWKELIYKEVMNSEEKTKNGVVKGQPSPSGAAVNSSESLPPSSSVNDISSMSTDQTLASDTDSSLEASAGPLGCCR
Procedure: as §1, §2

p38 = p38 (Homo sapiens, UniProt Q16539); test: p38 in vitro kinase assay (SPA, GST-ATF2 substrate); format: biochemical; details: amount necessary to achieve 50% inhibition
Sequence of p38 (Q16539 whole entry): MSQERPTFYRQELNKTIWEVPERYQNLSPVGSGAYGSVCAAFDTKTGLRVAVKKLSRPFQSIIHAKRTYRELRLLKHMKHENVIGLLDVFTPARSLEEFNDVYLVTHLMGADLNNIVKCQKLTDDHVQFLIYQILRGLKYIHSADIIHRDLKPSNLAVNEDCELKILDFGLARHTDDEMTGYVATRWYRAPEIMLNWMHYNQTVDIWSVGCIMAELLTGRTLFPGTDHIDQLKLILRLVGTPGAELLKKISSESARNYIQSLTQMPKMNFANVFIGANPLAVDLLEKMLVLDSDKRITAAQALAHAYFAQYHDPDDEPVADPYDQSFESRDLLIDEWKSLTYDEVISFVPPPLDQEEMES
Procedure: as §1, §2

ERK2 = ERK2 (Homo sapiens, UniProt P28482); test: ERK2 in vitro kinase assay (SPA, myelin basic protein substrate); format: biochemical; details: amount necessary to achieve 50% inhibition
Sequence of ERK2 (P28482 whole entry, species assumed): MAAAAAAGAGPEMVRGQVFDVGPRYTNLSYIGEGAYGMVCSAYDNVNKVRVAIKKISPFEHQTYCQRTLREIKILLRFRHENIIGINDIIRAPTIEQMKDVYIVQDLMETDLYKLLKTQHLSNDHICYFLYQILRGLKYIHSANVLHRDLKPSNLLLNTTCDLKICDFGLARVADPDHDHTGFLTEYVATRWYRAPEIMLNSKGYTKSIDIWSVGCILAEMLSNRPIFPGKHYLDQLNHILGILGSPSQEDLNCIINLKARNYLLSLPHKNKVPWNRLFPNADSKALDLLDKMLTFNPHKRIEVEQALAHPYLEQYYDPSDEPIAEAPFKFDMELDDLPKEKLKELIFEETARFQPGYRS
Procedure: as §1, §2

[1] = tested on: IL-2 release by PMA+Iono-stimulated Jurkat cells; test: IL-2 release assay (ELISA); format: cell-based; details: Homo sapiens, PMA+Ionomycine-stimulated Jurkat cells, 24 hours, read-out: % Inhibition of IL2 Production @3 uM
Procedure: Jurkat cells, a human T cell leukemia cell line (American Type Culture Collection # TIB 152) were cultured in RPMI 1640 medium (Gibco, BRL) supplemented with 10% of […] FCS, Glutamine and Penstrep. The cell suspension in the medium is diluted to give 2.10^6 cells/mL. The cells were plated (2.10^5 cells/well) on a 96-well plate containing different concentration of test compound (final concentration of compounds, 10, 3, 1, […], 0.1 μM). This mixture is incubated 30 minutes at 37° C. in a humidified CO2 atmosphere. Cells were then treated with 10 ul PMA+Ionomycine (0.1 μM and 1 μM final concentration) in all wells except negative control. In wells without compounds, 10 μl of RPMI 2% DMSO (=0.1% final) is added. Cells are incubated 24 hours at 37° C. and then the supernatant harvested (freeze at −20° C. if not used the same day) prior to performing IL-2 ELISA test on the supernatant.
IL-2 release into the medium by PMA+Iono-stimulated Jurkat cells, in presence or absence of test compounds is assayed by ELISA. Following the procedure described below
Transfer 100 μl capture antibody diluted in PBS at 5 μg/mL into a 96 well ELISA plate and incubate overnight at room temperature.
Aspirate each well and wash 3 times with Wash buffer. After the last wash, damp the plate.
1. Saturate with 200 μl PBS-10% FCS. Incubate 1 hour at room temperature.
2. Repeat the wash step 2.
• 1. Add 100 μl of sample or standard ([…]) and incubate 2 hours at room temperature. • 2. Wash 3 times. • 3. Add 100 μl of biotinylated anti-human IL-2 at 12.5 ng/mL. Incubate 2 hours at room temperature. • 4. Wash 3 times. • 5. Add 100 μl streptavidin-HRP (Zymed #43-4323) at 1:10′000. Incubate 30 minutes at room temperature. • 6. Wash 3 times • 7. Add 100 μl substrate solution (citric acid/Na2HPO4 (1:1)+H2O2 1:2000+OPD). Incubate 20-30 minutes at room temperature. • 8. Add 50 μl of stop solution to each well. • 9. Determine optical density using a microliter plate reader set to 450 nm with correction at 570 nm.

Hlr c-Jun HeLa cells = test: C-Jun reporter assay (Dual-Luciferase); format: cell-based; details: Homo sapiens, Hlr c-Jun HeLa cells transfected with pMEKK1
Procedure: Hlr c-Jun HeLa cells are cultured in DMEM High Glc supplemented with 10% FCS (Sigma), 2 mM Glutamine (Gibco), P/S, Hygromycin b 100 μg/mL and G418 250 μg/mL
The cell suspension are diluted with medium to give about 3.5×10^6 cells/mL and 1 mL of cell suspension are put onto 2 10 cm culture dishes containing 9 mL of culture medium.
• Control: 0.2 μg pTK Renilla, 5.8 μg pBluescript KS, 500 μl OPTIMEM (GIBCO), 18 μl Fugene 6 • Induced: 0.1 μg pMEKK1, 0.2 μg pTK Renilla, 5.7 μg pBluescript KS, 500 μl OPTIMEM (GIBCO), 18 μl Fugene 6 30′ RT
The transfection mixture is added to the plated cells. The plates are incubated over night at 37° C. in a humidified atmosphere of 5% CO2 in air
A 96 wells plate containing 100 μl of culture medium per well is prepared
Negative control (vehicle): 2 μl of DMSO is added to the 100 μl (in triplicate).
Compound: 2 μl of Hit compound stock dilution are added to the 100 μl (in triplicate).
The transfected cells are trypsinised and ressuspend in 12 mL of culture medium.
100 μl of the dilution are added to each of the 96 wells plate.
The plate is incubated over night at 37° C. in a humidified atmosphere of 5% CO2 in air
Dual-Luciferase™ Reporter Assay System (Promega)
The medium is removed from the plate and the cells washed two times with 100 μl PBS Completely remove the rinse solution before applying PLB reagent. Dispense into each culture well […] of 1×PLB. Place the culture plates on a rocking platform or orbital shaker with gentle
rocking/shaking to ensure complete and even coverage of the cell monolayer with 1×PLB. Rock the culture plates at room temperature for 15 minutes. Transfer 20 μl of the lysate into a white opaque 96 wells plate. Read in a luminometer.
• Inject 50 μl of Luciferase Assay Reagent II wait 5″, read 10″ • Inject 50 μl of Stop & Glo® Reagent wait 5″, read 10″ Check RLU Luciferase/RLU Renilla *1000

Sequence of JNK2 (P45984 whole entry, species assumed): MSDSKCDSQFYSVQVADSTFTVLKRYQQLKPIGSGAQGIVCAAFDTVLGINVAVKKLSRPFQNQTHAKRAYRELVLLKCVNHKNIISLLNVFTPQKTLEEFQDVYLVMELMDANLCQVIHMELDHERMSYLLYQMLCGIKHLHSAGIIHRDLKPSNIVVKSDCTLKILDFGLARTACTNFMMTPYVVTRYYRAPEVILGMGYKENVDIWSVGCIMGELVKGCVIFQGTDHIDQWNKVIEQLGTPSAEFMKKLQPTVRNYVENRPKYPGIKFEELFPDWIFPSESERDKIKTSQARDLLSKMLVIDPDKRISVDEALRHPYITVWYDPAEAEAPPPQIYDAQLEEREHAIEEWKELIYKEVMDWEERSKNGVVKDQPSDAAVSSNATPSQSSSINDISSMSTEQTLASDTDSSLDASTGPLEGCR

| Structure (SMILES) | melting point | IC50 (JNK2) | IC50 (JNK3) | IC50 (p38) | IC50 (ERK2) | inhibition at 3 µM [1] | inhibition at 10 µM (Hlr c-Jun HeLa cells) |
| --- | --- | --- | --- | --- | --- | --- | --- |
| O=C(NCc1ccc(S(=O)(=O)N2CCC(Nc3cccc(S(=O)(=O)C(F)(F)F)c3)CC2)s1)c1ccc(Cl)cc1 [Example 2, 4-Chloro-N-{5-[4-(3-Trifluoromethanesulfonyl-phenylamino)-piperidine-1-sulfonyl]-thiophen-2-ylmethyl}-benzamide] | 198 to 199 °C | – | – | – | – | – | – |
| CCCc1cccc(NC2CCN(S(=O)(=O)c3ccc(CNC(=O)c4ccc(Cl)cc4)s3)CC2)c1 [Example 110, 4-chloro-N-{[5-({4-[3-propylanilino]piperidin-1-yl}sulfonyl)thien-2-yl]methyl}benzamide] | 169 to 170 °C | 310 nM | 110 nM | > 30000 nM | > 30000 nM | > 30% | > 30% |
